Results: publication PMC6048268, “Resveratrol Inhibits Key Steps of Steroid Metabolism in a Human Estrogen-Receptor Positive Breast Cancer Model: Impact on Cellular Proliferation” (Frontiers in Pharmacology, 2018)
Like-named read-outs stand apart in the source and are kept apart here.

Experiments:
[1] = test system: steroid metabolism in MCF-7 cells; experiment: Inhibition of steroid metabolism by RES in MCF-7 cells (LC–HRMS); details: for inhibition at 10 µM: Homo sapiens, MCF7, 48 h; for Ki: MCF-7, Dixon plot
[2] = test system: steroid metabolism in MDA-MB-231 cells; experiment: Inhibition of steroid metabolism by RES in MDA-MB-231 cells (LC–HRMS); assay type: cell-based, human; details: MDA-MB-231, 100 μM RES, 100 nM DHEA or E1, 48 h
Procedure: Briefly, cartridges were preconditioned with 2 × 1.0 ml acetonitrile and 3 × 1.0 ml ammonium acetate buffer (10 mM, pH = 5.0), and the samples were loaded onto the columns. After washing with 1 × 1.0 ml ammonium acetate buffer (10 mM, pH = 5.0) and 2 × 1.0 ml acetonitrile/ammonium acetate buffer (10 mM, pH 5.0) 10:90 (v/v), the analytes were eluted using 2 × 650 μl acetonitrile/ammonium acetate buffer (10 mM, pH = 5.0) 95:5 (v/v) and evaporated until dry. Subsequently, samples were reconstituted in 270 μl acetonitrile/ammonium acetate buffer (10 mM, pH = 5.0) 25:75 (v/v) and stored at -80°C until further LC–HRMS analysis.
After media collection, cell monolayers were washed five times with 2.0 ml DPBS, detached using 400 μl TrypLE® solution (37°C, 5 min), mixed with 600 μl DPBS and transferred into sample vials. Aliquots of these suspensions (100 μl each) were diluted and counted using the Casy® TT Cell Counter to determine the exact number of cells per sample well. […]
LC was performed with an UltiMate 3000 RSLC-series system coupled to a maXis HD ESI-Qq-TOF mass spectrometer (Bruker Corporation, Bremen, Germany). […] In the range of m/z 150–500, full-scan mass spectra were recorded.
The modes of inhibition were subsequently determined from Lineweaver–Burk plots, and the corresponding Ki values were calculated from Dixon plots using GraphPad Prism 6.0.

[3] = MCF-7, 100 μM RES, 100 nM DHEA, 48 h
[4] = MCF-7, 100 μM RES, 100 nM E1, 48 h

## Oc1ccc(/C=C/c2cc(O)cc(O)c2)cc1 [RES, 3,5,4′-trihydroxy-trans-stilbene]
[1]; read-out: inhibition of E1 sulfation
  inhibition at 10 µM: 91.6 ± 1.1%
[1]; read-out: inhibition of E2 sulfation
  inhibition at 10 µM: 90 ± 1%
[1]; [3]
  increase in AD concentrations: 141.0%
  increase in T levels: 305.9%
  reduction of mean formation of DHEA-S: 87.7%
[1]; [4]
  increase in unconjugated E2 concentrations: 101.6%
  reduction of mean formation of E1-S: 99.1%
  reduction of mean formation of E2-G: 89.7%
  reduction of mean formation of E2-S: 98.8%
[1]; MCF-7, Lineweaver–Burk and Dixon plots, all conjugates
  mode of inhibition of conjugate formation: non-competitive
[1]; read-out: Ki, inhibition of DHEA-S formation, DHEA precursor
  Ki: 13.2 ± 0.2 µM
[1]; read-out: Ki, inhibition of E1-S formation, E1 precursor
  Ki: 0.94 ± 0.03 µM
[1]; read-out: Ki, inhibition of E2-G formation, E1 precursor
  Ki: 7.92 ± 0.24 µM
[1]; read-out: Ki, inhibition of E2-S formation, E1 precursor
  Ki: 0.73 ± 0.07 µM
[2]
  effect on formation of DHEA-S, E1-S, E2-S and E2-G: did not affect
  effect on formation of unconjugated AD, T and E2: no significant influence
